In patent US5684034A, “1H-indole-3-acetamide sPLA2 inhibitors” (Eli Lilly and Company, priority 1995, dated 1997):
Several values for one entry are separate records, joined by “and”; a condition that tells them apart may be missing. Equal values may be shown once. Where a name gives a salt, the structure may show the parent alone. Read-outs that look alike come from different tables or passages of the source.

Target: T1, recombinant human secreted phospholipase A2 (Homo sapiens, UniProt P14555)
T1 sequence (P14555 21-144): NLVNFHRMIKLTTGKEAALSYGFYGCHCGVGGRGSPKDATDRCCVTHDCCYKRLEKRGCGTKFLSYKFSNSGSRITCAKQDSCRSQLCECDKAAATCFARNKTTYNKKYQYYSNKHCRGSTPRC
Experiment: Human secreted phospholipase A2 inhibition test (chromogenic assay, diheptanoyl thio-PC substrate)
Type: biochemical
Details: pH 7.5, 40° C., 30 minutes, 405 nm
Protocol: The following chromogenic assay procedure was used to identify and evaluate inhibitors of recombinant human secreted phospholipase A2. The assay described herein has been adapted for high volume screening using 96 well microtiter plates.
A measured volume of racetic dipheptanoyl thio PC supplied in chloroform at a concentration of 100 mg/ml is taken to dryness and redissolved in 10 millimolar TRITON X-100™ nonionic detergent aqueous solution. Reaction Buffer is added to the solution, then DTNB to give the Reaction Mixture.
The reaction mixture thus obtained contains 1 mM diheptanoly thio-PC substrate, 0.29 mm Triton X-100™ detergent, and 0.12 mm DTMB in a buffered aqueous solution at pH 7.5.
1. Add 0.2 ml reaction mixture to all wells;
2. Add 10 ul test compound (or solvent blank) to appropriate wells, mix 20 seconds:
3. Add 50 nanograms of sPLA2 (10 microliters) to appropriate wells;
4. incubate plate at 40° C. for 30 minutes;
All compounds were tested in triplicate. […] Each sample was titrated in triplicate and result values were averaged for plotting and calculation of IC50 values. […] Each IC50 value was determined three times.

[1] = read-out: Inhibition of human secreted PLA2 IC50 ± mean deviation (3-5 tests)
[2] = Inhibition of human secreted PLA2 IC50 ± mean deviation (3-5 tests)

| Compound | IC50 [1] | other results |
| --- | --- | --- |
| Cc1c(CC(N)=O)c2cc(Oc3ccccc3)ccc2n1Cc1ccccc1 [Example 95, 2-Methyl-5-phenoxy-1-(phenylmethyl)-1H-indole-3-acetamide] | 1.01 ± 0.32 µM |  |
| Cc1c(CC(N)=O)c2c(O)cccc2n1Cc1ccccc1 [Example 36, 4-Hydroxy-2-methyl-1-(phenylmethyl)-1H-indole-3-acetamide] |  | IC50 [2]: 7.46 ± 1.66 µM |
| Cc1c(CC(N)=O)c2c(OCC(=O)O)cccc2n1Cc1cccc(Cl)c1 [Example 72, [[3-(2-Amino-2-oxoethyl)-1-[(3-chlorophenyl)methyl]-2-methyl-1H-indol-4-yl]oxy]methyl]acetic acid sodium salt] |  | IC50 [2]: 0.05 ± 0.15 µM |
| COC(=O)CCNc1ccc2c(c1)c(CC(N)=O)c(C)n2Cc1ccccc1 [Example 25, 3-[[3-(2-Amino-2-oxoethyl)-2-methyl-1-(phenylmethyl)-1H-indol-5-yl]amino]propanoic acid methyl ester] | 3.34 ± 0.46 µM |  |
| C=CCc1c(OCCCP(=O)(O)O)ccc2c1c(CC(N)=O)c(CC)n2Cc1ccccc1 [Example 94, [3-[[4-Allyl-3-(2-amino-2-oxoethyl)-2-ethyl-1-(phenylmethyl)-1H-indol-5-yl]oxy]propyl]phosphonic acid disodium salt] | 0.612 ± 0.065 µM |  |
| COC(=O)COc1cccc2c1c(CC(N)=O)c(C)n2Cc1cccc(Cl)c1 [Example 71] | 2.37 ± 0.79 µM |  |
| CCOC(=O)CCCOc1ccc2c(c1)c(CC(N)=O)c(SC)n2Cc1ccccc1 [Example 45, 4-[[3-(2-Amino-2-oxoethyl)-2-(methylthio)-1-(phenylmethyl)-1H-indol-5-yl]oxy]butanoic acid ethyl ester] | 1.55 ± 0.51 µM |  |
| COC(=O)CCN(CCC(=O)OC)c1ccc2c(c1)c(CC(N)=O)c(C)n2Cc1ccccc1 [Example 26, 3,3'-[[3-(2-Amino-2-oxoethyl)-2-methyl-1-(phenylmethyl)-1H-indol-5-yl]imino]bis[propanoic acid]dimethyl ester] | 2.49 µM |  |
| Cc1c(CC(N)=O)c2cc(OCC(=O)O)ccc2n1Cc1ccccc1 [Example 19, 2-[[3-(2-Amino-2-oxoethyl)-2-methyl-1-(phenylmethyl)-1H-indol-5-yl]oxy]acetic acid] |  | IC50 [2]: 1.16 ± 0.41 µM |
| COc1ccc2c(c1)c(CC(N)=O)c(C1CC1)n2Cc1ccccc1 [Example 77, 2-Cyclopropyl-5-methoxy-1-(phenylmethyl)-1H-indole-3-acetamide] | 0.336 ± 0.023 µM |  |
| NC(=O)Cc1c(C2CC2)n(Cc2ccccc2)c2ccc(O)cc12 [Example 78, 2-Cyclopropyl-5-hydroxy-1-(phenylmethyl)-1H-indole-3-acetamide] | 0.118 ± 0.011 µM |  |
| CCCCCCCCn1c(C)c(CC(N)=O)c2cc(OCCCC(=O)O)ccc21 [Example 52] | 0.77 ± 0.27 µM |  |
| CCCc1c(CC(N)=O)c2cc(OC)ccc2n1Cc1ccccc1 [Example 10, 5-Methoxy-1-(phenylmethyl)-2-propyl-1H-indole-3-acetamide] | 38.1 ± 2.82 µM |  |
| CCOP(=O)(COc1cccc2c1c(CC(N)=O)c(C)n2Cc1ccccc1)OCC [Example 67] |  | IC50 [2]: 1.68 µM |
| NC(=O)Cc1cn(Cc2ccccc2)c2ccc(OCCCC(=O)O)cc12 [Example 83, 4-[[3-(2-Amino-2-oxoethyl)-1-(phenylmethyl)-1H-indol-5-yl]oxy]butanoic acid] | 0.15 ± 0.04 µM |  |
| CCCCCCn1c(C)c(CC(N)=O)c2cc(OCCCC(=O)O)ccc21 [Example 50] | 2.47 ± 1.31 µM |  |
| Cc1c(CC(N)=O)c2cc(OCCCC(=O)O)ccc2n1CC1CCCCC1 [Example 54] | 0.65 ± 0.15 µM |  |
| CCc1c(CC(N)=O)c2cc(OCCCP(=O)(O)O)ccc2n1Cc1cccc(Cl)c1 [Example 64, [3-[[3-(2-Amino-2-oxoethyl)-1-[(3-chlorophenyl)methyl]-2-ethyl-1H-indol-5-yl]oxy]propyl]phosphonic acid] | 0.016 ± 0.001 µM |  |
| NC(=O)Cc1cn(Cc2ccccc2)c2cc(Cl)c(OCCCP(=O)(O)O)cc12 [Example 92, 3-[4-[[3-(2-Amino-2-oxoethyl)-6-chloro-1-(phenylmethyl)-1H-indol-5-yl]oxy]propyl]phosphonic acid] | 0.014 ± 0.004 µM |  |
| COC(=O)c1ccccc1COc1ccc2c(c1)c(CC(N)=O)c(C)n2Cc1ccccc1 [Example 96, 2-[[[3-(2-Amino-2-oxoethyl)-2-methyl-1-(phenylmethyl)-1H-indol-5-yl]oxy]methyl]benzoic acid methyl ester] | 0.62 ± 0.18 µM |  |
| Cc1c(CC(N)=O)c2cc(NCCC(=O)O)ccc2n1Cc1ccccc1 [Example 27, 3-[[3-(2-Amino-2-oxoethyl)-2-methyl-1-(phenylmethyl)-1H-indol-5-yl]amino]propanoic acid] |  | IC50 [2]: 3.3 ± 0.1 µM |

| Compound | IC50 [1] | other results |
| --- | --- | --- |
| NC(=O)Cc1cn(Cc2ccccc2)c2cccc(OCC(=O)O)c12 [Example 76, 2-[[3-(2-Amino-2-oxoethyl)-1-(phenylmethyl)-1H-indol-4-yl]oxy]acetic acid] | 0.337 µM and 0.305 µM |  |
| NC(=O)Cc1c(Br)n(Cc2ccccc2)c2ccc(OCCCP(=O)(O)O)cc12 [Example 88] |  | IC50 [2]: 0.03 ± 0.006 µM |
| COc1ccc2c(CC(N)=O)c(C)n(Cc3ccccc3)c2c1 [Example 29, 6-Methoxy-2-methyl-1-(phenylmethyl)-1H-indole-3-acetamide] |  | IC50 (unit printed um, read-out: Inhibition of human secreted PLA2 IC50 ± mean deviation (3-5 tests)): 1.23 ± 0.33 µM |
| COc1ccc2c(c1)c(CC(N)=O)c(C)n2Cc1cccc(Cl)c1 [Example 69, 1-[(3-Chlorophenyl)methyl]-5-methoxy-2-methyl-1H-indole-3-acetamide] | 1.38 ± 0.52 µM |  |
| CCc1c(CC(N)=O)c2cc(OCc3ccccc3C(=O)OC)ccc2n1Cc1ccccc1 [Example 98, 2-[[[3-(2-Amino-2-oxoethyl)-2-ethyl-1-(phenylmethyl)-1H-indol-5-yl]oxy]methyl]benzoic acid methyl ester] | 1.15 ± 0.32 µM |  |
| Cc1c(CC(N)=O)c2cc(OCCCS(=O)(=O)O)ccc2n1Cc1ccccc1 [Example 84, 3-[4-[[3-(2-Amino-2-oxoethyl)-2-methyl-1-(phenylmethyl)-1H-indol-5-yl]oxy]propane]sulfonic acid] | 0.195 ± 0.065 µM |  |
| Cc1c(CC(N)=O)c2cc(OCc3ccccc3C(=O)O)ccc2n1Cc1ccccc1 [Example 97, 2-[[[3-(2-Amino-2-oxoethyl)-2-methyl-1-(phenylmethyl)-1H-indol-5-yl]oxy]methyl]benzoic acid] |  | IC50 [2]: 0.15 ± 0.01 µM |
| COC(=O)c1cccc(COc2ccc3c(c2)c(CC(N)=O)c(C)n3Cc2ccccc2)c1 [Example 100, 3-[[[3-(2-Amino-2-oxoethyl)-2-methyl-1-(phenylmethyl)-1H-indol-5-yl]oxy]methyl]benzoic acid methyl ester] | 3.84 ± 1.32 µM |  |
| Cc1c(CC(N)=O)c2ccc(OCCCCC(=O)O)cc2n1Cc1ccccc1 [Example 34, 5-[[3-(2-Amino-2-oxoethyl)-2-methyl-1-(phenylmethyl)-1H-indol-6-yl]oxy]pentanoic acid] | 7.96 ± 1.22 µM |  |
| Cc1c(CC(N)=O)c2cc(NCCC(=O)NN)ccc2n1Cc1ccccc1 [Example 28, 3-[[3-(2-Amino-2-oxoethyl)-2-methyl-1-(phenylmethyl)-1H-indol-5-yl]amino]propanoic acid hydrazide] | 1.55 ± 0.93 µM |  |
| CCCCCCCCCCn1c(C)c(CC(N)=O)c2cc(OC)ccc21 [Example 14, 1-Decyl-5-methoxy-2-methyl-1H-indole-3-acetamide] | 8.48 ± 5.25 µM |  |
| Cc1c(CC(N)=O)c2cc(N)ccc2n1Cc1ccccc1 [Example 17, 5-Amino-2-methyl-1-(phenylmethyl)-1H-indole-3-acetamide] | 1.61 ± 0.44 µM |  |
| Cc1c(CC(N)=O)c2c(OCC(N)=O)cccc2n1Cc1ccccc1 [Example 66, 4-(2-Amino-2-oxoethoxy)-2-methyl-1-(phenylmethyl)-1H-indole-3-acetamide] | 0.36 ± 0.07 µM |  |
| NC(=O)Cc1cn(Cc2ccccc2)c2ccc(OCCCP(=O)(O)O)cc12 [Example 80, [3-[[3-(2-Amino-2-oxoethyl)-1-(phenylmethyl)-1H-indol-5-yl]oxy]propyl]phosphonic acid] |  | IC50 [2]: 0.2 ± 0.09 µM |
| COc1ccc2c(c1)c(CC(N)=O)c(C)n2Cc1c(Cl)cccc1Cl [Example 6, 1-(2,6-Dichlorophenylmethyl)-5-methoxy-2-methyl-1H-indole-3-acetamide] | 1.3 ± 0.29 µM |  |
| Cc1c(CC(N)=O)c2c(OCC(=O)O)cccc2n1Cc1ccccc1-c1ccccc1 [Example 73, [[3-(2-Amino-2-oxoethyl)-1-([1,1'-biphenyl]-2-ylmethyl)-2-methyl-1H-indol-4-yl]oxy]acetic acid sodium salt] | 0.01 ± 0.001 µM |  |
| Cc1c(CC(N)=O)c2c(OCC(=O)NN)cccc2n1Cc1ccccc1 [Example 65, 4-(2-Hydrazino-2-oxoethoxy)-2-methyl-1-(phenylmethyl)-1H-indole-3-acetamide] | 0.36 ± 0.13 µM |  |
| CCCCCCCCCCCCCCn1c(C)c(CC(N)=O)c2cc(OC)ccc21 [Example 48, 5-Methoxy-2-methyl-1-tetradecyl-1H-indole-3-acetamide] | > 100 µM |  |
| CCc1c(CC(N)=O)c2cc(OCCCP(=O)(OC)OC)ccc2n1Cc1ccccc1 [Example 61, [3-[[3-(2-Amino-2-oxoethyl)-2-ethyl-1-(phenylmethyl)-1H-indol-5-yl]oxy]propyl]phosphonic acid dimethyl ester] |  | IC50 [2]: 0.27 µM |
| Cc1c(CC(N)=O)c2ccc(O)cc2n1Cc1ccccc1 [Example 30, 6-Hydroxy-2-methyl-1-(phenylmethyl)-1H-indole-3-acetamide] | 3.61 ± 0.75 µM |  |
